These results are taken from patent publication US9657062B2, “Ghrelin analogues” (Zealand Pharma A/S, priority 2012, dated 2017).

The structures appear in SMILES notation. Where a SMILES comes first, the peptide text is derived from it. [ ]: non-standard residue; d: D form. The star is where a group is joined. Octanoyl = CCCCCCCC(=O)*; Dap = NC[C@H](N)C(=O)O; Octyl = CCCCCCCC*

For one test, the system named is normal chow-fed C57BL/6J male mice. The experiment in a line: Effect on food intake in normal mice (HM-2 automated monitoring). The class given is in vivo, mouse. The note with it: 300 nmol/kg s.c. once, light phase 0-6 h, modified protocol (food access re-opened 2 h after dosing). The protocol: Normal chow-fed C57BL/6J male mice were used. The mice were kept in an automated food- and water-intake monitoring system (HM-2) which allows automated on-line measurements of accumulated food intake (FI) and other parameters. Food intake was monitored by the HM-2 system up to 24 h after dosing. The mice were kept 6 per cage, and each dosing group consisted of 6 animals.
In the initial experimental set-up with ghrelin as test compound, animals were allowed free access to food directly after treatment, and the resulting data for food intake are shown in FIG. 1A herein (vide infra).
In order to further investigate the “duration of action” of ghrelin and the other test compounds a new protocol was defined. In the modified protocol the gate to the food chambers was closed prior to dosing with vehicle or test compound and was re-opened 2 hours thereafter. The resulting data for food intake following dosing with ghrelin or vehicle are summarized in FIG. 1B (vide infra), while the corresponding data for food intake following dosing with each of the of the other four test compounds. (Compound 16, 22, 23 or 43 of the invention) or with vehicle are summarized in FIG. 2A (data for monitoring up to 6 hours after dosing) and FIG. 2B (data for monitoring up to 24 hours after dosing).
As to `CCCCCCCCOC[C@H](NC(=O)[C@H](CO)NC(=O)[C@@H]1CCCN1)C(=O)N[C@@H](Cc1ccccc1)C(=O)N[C@@H](CC(C)C)C(=O)N[C@@H](CO)C(=O)N1CCC[C@H]1C(=O)N[C@@H](CCC(=O)O)C(=O)N[C@@H](Cc1c[nH]cn1)C(=O)N[C@@H](CO)C(=O)N[C@@H](CCCNC(=N)N)C(=O)N[C@H](C(=O)N[C@@H](CO)C(=O)N[C@@H](CO)C(=O)N[C@@H](CCCNC(=N)N)C(=O)N[C@@H](CCCCN)C(=O)N[C@@H](CCC(=O)O)C(=O)N[C@@H](CO)C(=O)N[C@@H](CO)C(=O)N[C@@H](CCCCN)C(=O)N1CCC[C@H]1C(=O)N1CCC[C@H]1C(=O)N[C@@H](C)C(=O)N[C@@H](CCCCN)C(=O)N[C@@H](CC(C)C)C(=O)N[C@@H](CO)C(=O)N1CCC[C@H]1C(=O)N[C@@H](CCCNC(=N)N)C(N)=O)C(C)C` [Compound 45] (H-PSS(Octyl)FLSPEHSRVSSRKESSKPPAKLSPR-NH2), the “Accumulated FI at 6h” value came out at 0.38 ± 0.13 g.

On to `CCCCCCCCCCCCCCCC(=O)N[C@@H](CCC(=O)NCCCC[C@H](NC(=O)[C@H](CO)NC(=O)[C@H](CCC(=O)O)NC(=O)[C@H](CCCCN)NC(=O)[C@H](CCCNC(=N)N)NC(=O)[C@H](CCC(N)=O)NC(=O)[C@H](CCC(N)=O)NC(=O)[C@@H](NC(=O)[C@H](CCCNC(=N)N)NC(=O)[C@H](CCC(N)=O)NC(=O)[C@H](Cc1c[nH]cn1)NC(=O)[C@H](CCC(=O)O)NC(=O)[C@@H]1CCCN1C(=O)[C@H](CO)NC(=O)[C@H](CC(C)C)NC(=O)[C@H](Cc1ccccc1)NC(=O)[C@H](COCCCCCCCC)NC(=O)[C@H](CO)NC(=O)[C@@H]1CCCN1)C(C)C)C(=O)N[C@@H](CCCCN)C(=O)N1CCC[C@H]1C(=O)N1CCC[C@H]1C(=O)N[C@@H](C)C(=O)N[C@@H](CCCCN)C(=O)N[C@@H](CC(C)C)C(=O)N[C@@H](CCC(N)=O)C(=O)N1CCC[C@H]1C(=O)N[C@@H](CCCNC(=N)N)C(N)=O)C(=O)O` [Compound 43], for which the “Accumulated FI at 6h” value is given as 0.37 ± 0.14 g.

Regarding `CCCCCCCCOC[C@H](NC(=O)[C@H](CO)NC(=O)[C@@H]1CCCN1)C(=O)N[C@@H](Cc1ccccc1)C(=O)N[C@@H](CC(C)C)C(=O)N[C@@H](CO)C(=O)N1CCC[C@H]1C(=O)N[C@@H](CCC(=O)O)C(=O)N[C@@H](Cc1c[nH]cn1)C(=O)N[C@@H](CO)C(=O)N[C@@H](CCCNC(=N)N)C(=O)N[C@H](C(=O)N[C@@H](CO)C(=O)N[C@@H](CO)C(=O)N[C@@H](CCCNC(=N)N)C(=O)N1CCC[C@H]1C(=O)N[C@@H](CCC(=O)O)C(=O)N[C@@H](CO)C(=O)N[C@@H](CO)C(=O)N[C@@H](CO)C(=O)N1CCC[C@H]1C(=O)N1CCC[C@H]1C(=O)N[C@@H](C)C(=O)N[C@@H](CCCCN)C(=O)N[C@@H](CC(C)C)C(=O)N[C@@H](CO)C(=O)N1CCC[C@H]1C(=O)N[C@@H](CCCNC(=N)N)C(N)=O)C(C)C` [Compound 49] (H-PSS(Octyl)FLSPEHSRVSSRPESSSPPAKLSPR-NH2), the “Accumulated FI at 6h” value is 0.6 ± 0.09 g.

Take `CCCCCCCC(=O)NC[C@H](NC(=O)[C@H](CO)NC(=O)[C@@H]1CCCN1)C(=O)N[C@@H](Cc1ccccc1)C(=O)N[C@@H](CC(C)C)C(=O)N[C@@H](CO)C(=O)N1CCC[C@H]1C(=O)N[C@@H](Cc1ccc(O)cc1)C(N)=O` [Compound 42, H-PS-Dap(N-octanoyl)-FLSPY-NH2] (H-PS[Dap](Octanoyl)FLSPY-NH2): the “Accumulated FI at 6h” value is given as 0.2 ± 0.08 g.

Turning to `CCCCCCCC(=O)NC[C@H](NC(=O)[C@H](CO)NC(=O)[C@@H]1CCCN1)C(=O)N[C@@H](Cc1ccccc1)C(=O)N[C@@H](CC(C)C)C(=O)N[C@@H](CO)C(=O)N1CCC[C@H]1C(=O)N[C@@H](CCC(=O)O)C(=O)N[C@@H](Cc1c[nH]cn1)C(=O)N[C@@H](CCC(N)=O)C(=O)N[C@@H](CCCNC(=N)N)C(=O)N[C@H](C(=O)N[C@@H](CCC(N)=O)C(=O)N[C@@H](CCC(N)=O)C(=O)N[C@@H](CCCNC(=N)N)C(=O)N[C@@H](CCCCN)C(=O)N[C@@H](CCC(=O)O)C(=O)N[C@@H](CO)C(=O)N[C@@H](CCCCN)C(=O)N[C@@H](CCCCN)C(=O)N1CCC[C@H]1C(=O)N1CCC[C@H]1C(=O)N[C@@H](C)C(=O)N[C@@H](CCCCN)C(=O)N[C@@H](CC(C)C)C(=O)N[C@@H](CCC(N)=O)C(=O)N1CCC[C@H]1C(=O)N[C@@H](CCCNC(=N)N)C(N)=O)C(C)C` [Compound 22], the “Accumulated FI at 6h” value was determined as 1.87 ± 0.23 g.

The same test, now with this note: 300 nmol/kg s.c., modified protocol, 0-24 h monitoring (FIG. 2B).
Turning to `CCCCCCCC(=O)NC[C@H](NC(=O)[C@H](CO)NC(=O)[C@@H]1CCCN1)C(=O)N[C@@H](Cc1ccccc1)C(=O)N[C@@H](CC(C)C)C(=O)N[C@@H](CO)C(=O)N1CCC[C@H]1C(=O)N[C@@H](CCC(=O)O)C(=O)N[C@@H](Cc1c[nH]cn1)C(=O)N[C@@H](CCC(N)=O)C(=O)N[C@@H](CCCNC(=N)N)C(=O)N[C@H](C(=O)N[C@@H](CCC(N)=O)C(=O)N[C@@H](CCC(N)=O)C(=O)N[C@@H](CCCNC(=N)N)C(=O)N[C@@H](CCCCN)C(=O)N[C@@H](CCC(=O)O)C(=O)N[C@@H](CO)C(=O)N[C@@H](CCCCN)C(=O)N[C@@H](CCCCN)C(=O)N1CCC[C@H]1C(=O)N1CCC[C@H]1C(=O)N[C@@H](C)C(=O)N[C@@H](CCCCN)C(=O)N[C@@H](CC(C)C)C(=O)N[C@@H](CCC(N)=O)C(=O)N1CCC[C@H]1C(=O)N[C@@H](CCCNC(=N)N)C(N)=O)C(C)C` [Compound 22], the “Effects on FI during the dark period” value is reported as “significant effects”.
